Assays:
[1] = Solubility in organic solvents; assay type: physicochemical
Method: The solubility test of Example Compound 1-2 of Example 1 was performed by dissolving Example Compound 1-2 respectively in THF, chloroform, toluene, xylene, mesitylene, diethyl ether, dichloromethane, and ethanol. Example Compound 1-2 was not dissolved in any of the above-described solvents, and cannot form a film by various printing methods.

[2] = TG-DTA thermal analysis (elimination of X-Y on heating); assay type: physicochemical; details: temperature increase rate 5° C./min
Method: A TG-DTA measurement with respect to Example Compound 1 was performed using TG/DTA200 (manufactured by Seiko Instruments is Inc.). […] This was identical with the melting point of the following Example Compound 1-2 described in Japanese Patent Application Laid-Open (JP-A) No. 2011-44686.

[3] = solvent such as THF, toluene, chloroform, xylene, diethyl ether, or dichloromethane

| SMILES | solubility in solvent [1, 3] | mass reduction, found value [2] [%] | also measured |
| --- | --- | --- | --- |
| C(=C\c1cc2sc3cc4c(cc3c2s1)sc1cc(/C=C/c2ccccc2)sc14)/c1ccccc1 [Example Compound 1-2] | – | – | solubility test ([1]; THF, chloroform, toluene, xylene, mesitylene, diethyl ether, dichloromethane, and ethanol): not dissolved |
| CC(C)(C)C(=O)OC(Cc1ccccc1)c1cc2sc3cc4c(cc3c2s1)sc1cc(C(Cc2ccccc2)OC(=O)C(C)(C)C)sc14 (centres unmarked) [Example Compound 1] | easily dissolved | 29.7 | – |
| COC(Cc1ccccc1)c1cc2sc3cc4c(cc3c2s1)sc1cc(C(Cc2ccccc2)OC)sc14 (centres unmarked) [Example Compound 12] | easily dissolved | 13.9 | – |
| CC(=O)OC(Cc1ccc(C)cc1)c1cc2sc3cc4c(cc3c2s1)sc1cc(C(Cc2ccc(C)cc2)OC(C)=O)sc14 (centres unmarked) [Example Compound 5] | – | 17.9 | – |
| CCOC(=O)CC(=O)OC(Cc1ccccc1)c1cc2sc3cc4c(cc3c2s1)sc1cc(C(Cc2ccccc2)OC(=O)CC(=O)OCC)sc14 (centres unmarked) [Example Compound 13] | easily dissolved | 35.5 | – |
| CCCCCC(=O)OC(Cc1ccc(-c2ccc(C)cc2)cc1)c1cc2sc3cc4c(cc3c2s1)sc1cc(C(Cc2ccc(-c3ccc(C)cc3)cc2)OC(=O)CCCCC)sc14 (centres unmarked) [Example Compound 18] | easily dissolved | 24.2 | – |
| CCCCCCc1ccc(CC(O)c2cc3sc4cc5c(cc4c3s2)sc2cc(C(O)Cc3ccc(CCCCCC)cc3)sc25)cc1 (centres unmarked) [Example Compound 7] | – | 4.0 | – |
| CCCCCC(=O)OC(Cc1ccc(C)cc1)c1cc2sc3cc4c(cc3c2s1)sc1cc(C(Cc2ccc(C)cc2)OC(=O)CCCCC)sc14 (centres unmarked) [Example Compound 4] | – | 30.0 | – |
| O=C(CCl)OC(Cc1ccccc1)c1cc2sc3cc4c(cc3c2s1)sc1cc(C(Cc2ccccc2)OC(=O)CCl)sc14 (centres unmarked) [Example Compound 14] | easily dissolved | 26.6 | – |
| CSC(=S)OC(Cc1ccc(C)cc1)c1cc2sc3cc4c(cc3c2s1)sc1cc(C(Cc2ccc(C)cc2)OC(=S)SC)sc14 (centres unmarked) [Example Compound 23] | – | – | solubility in solvent ([1]; solvent such as THF, toluene, chloroform, xylene, or dichloromethane): easily dissolved |

The next lines start with results.

| solubility in solvent [1, 3] | mass reduction, found value [2] [%] | SMILES | also measured |
| --- | --- | --- | --- |
| easily dissolved | 34.3 | O=C(CCC(F)(F)F)OC(Cc1ccccc1)c1cc2sc3cc4c(cc3c2s1)sc1cc(C(Cc2ccccc2)OC(=O)CCC(F)(F)F)sc14 (centres unmarked) [Example Compound 15] | – |
| easily dissolved | 33.3 | CCCCCOC(=O)OC(Cc1ccccc1)c1cc2sc3cc4c(cc3c2s1)sc1cc(C(Cc2ccccc2)OC(=O)OCCCCC)sc14 (centres unmarked) [Example Compound 11] | – |
| easily dissolved | 25.7 | CC(=O)CC(=O)OC(Cc1ccccc1)c1cc2sc3cc4c(cc3c2s1)sc1cc(C(Cc2ccccc2)OC(=O)CC(C)=O)sc14 (centres unmarked) [Example Compound 24] | – |
| – | 4.0 | Cc1ccc(-c2ccc(CC(O)c3cc4sc5cc6c(cc5c4s3)sc3cc(C(O)Cc4ccc(-c5ccc(C)cc5)cc4)sc36)cc2)cc1 (centres unmarked) [Example Compound 17] | solubility in solvent ([1]; solvent such as THF or toluene): easily dissolved |
| easily dissolved | 31.4 | CCCCCC(=O)OC(Cc1ccccc1)c1cc2sc3cc4c(cc3c2s1)sc1cc(C(Cc2ccccc2)OC(=O)CCCCC)sc14 (centres unmarked) [Example Compound 2] | – |
| – | 15.1 | CCCCCCc1ccc(CC(OC(C)=O)c2cc3sc4cc5c(cc4c3s2)sc2cc(C(Cc3ccc(CCCCCC)cc3)OC(C)=O)sc25)cc1 (centres unmarked) [Example Compound 6] | – |
| easily dissolved | 21.1 | CCCCCCc1ccc(CC(OC(=O)C(C)=O)c2cc3sc4cc5c(cc4c3s2)sc2cc(C(Cc3ccc(CCCCCC)cc3)OC(=O)C(C)=O)sc25)cc1 (centres unmarked) [Example Compound 16] | – |
| – | 32.6 | O=C(CC(F)(F)F)OC(Cc1ccccc1)c1cc2sc3cc4c(cc3c2s1)sc1cc(C(Cc2ccccc2)OC(=O)CC(F)(F)F)sc14 (centres unmarked) [Example Compound 3] | – |
